Among the data in ChEMBL document CHEMBL5291721, “A preclinical secondary pharmacology resource illuminates target-adverse drug reaction associations of marketed drugs” (Nat Commun, 2023) are AC50 values, retold here.

A value given as a limit tells only on which side of the number the result lay.

Targets include Vasopressin V2 receptor (Homo sapiens, UniProt P30518); Histamine H3 receptor (Homo sapiens, UniProt Q9Y5N1); Adenosine receptor A2a (Homo sapiens, UniProt P29274); Histamine H1 receptor (Homo sapiens, UniProt P35367); Vasopressin V1a receptor (Homo sapiens, UniProt P37288).
Test [1] has as its target Growth hormone secretagogue receptor type 1 (Homo sapiens, UniProt Q92847).
The target of test [2] is Kappa-type opioid receptor (Homo sapiens, UniProt P41145).
Kappa-type opioid receptor, sequence (P41145 whole entry): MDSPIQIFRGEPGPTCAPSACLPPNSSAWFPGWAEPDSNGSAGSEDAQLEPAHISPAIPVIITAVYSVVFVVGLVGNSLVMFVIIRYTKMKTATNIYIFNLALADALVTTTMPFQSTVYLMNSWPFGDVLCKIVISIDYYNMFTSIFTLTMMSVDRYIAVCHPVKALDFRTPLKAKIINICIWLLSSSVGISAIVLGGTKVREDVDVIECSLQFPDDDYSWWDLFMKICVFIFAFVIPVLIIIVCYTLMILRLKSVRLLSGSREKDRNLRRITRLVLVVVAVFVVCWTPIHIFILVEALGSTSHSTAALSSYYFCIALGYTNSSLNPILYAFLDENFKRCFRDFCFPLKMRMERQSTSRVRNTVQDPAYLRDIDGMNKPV
Test [3] has as its target T1, 5-hydroxytryptamine receptor 2B (Homo sapiens, UniProt P41595). It counts as functional, cell-based.
Another test deals with T2, Adenosine receptor A1 (Homo sapiens, UniProt P30542).
T2 sequence (P30542 whole entry): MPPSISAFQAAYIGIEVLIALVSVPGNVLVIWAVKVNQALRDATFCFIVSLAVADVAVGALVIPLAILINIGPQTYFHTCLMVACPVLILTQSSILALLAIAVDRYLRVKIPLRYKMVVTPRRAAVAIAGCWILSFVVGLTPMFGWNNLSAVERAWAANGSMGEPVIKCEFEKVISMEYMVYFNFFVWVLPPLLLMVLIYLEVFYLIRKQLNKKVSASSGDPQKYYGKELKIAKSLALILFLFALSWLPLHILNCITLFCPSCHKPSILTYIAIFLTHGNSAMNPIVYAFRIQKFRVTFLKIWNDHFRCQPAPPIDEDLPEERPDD

The next test concerns the target Cannabinoid receptor 1 (Homo sapiens, UniProt P21554). It is filed as functional, cell-based.
In a further test the target is Mu-type opioid receptor (Homo sapiens, UniProt P35372). The experiment in a line: biochemical. It counts as functional.
Mu-type opioid receptor, sequence (P35372 whole entry): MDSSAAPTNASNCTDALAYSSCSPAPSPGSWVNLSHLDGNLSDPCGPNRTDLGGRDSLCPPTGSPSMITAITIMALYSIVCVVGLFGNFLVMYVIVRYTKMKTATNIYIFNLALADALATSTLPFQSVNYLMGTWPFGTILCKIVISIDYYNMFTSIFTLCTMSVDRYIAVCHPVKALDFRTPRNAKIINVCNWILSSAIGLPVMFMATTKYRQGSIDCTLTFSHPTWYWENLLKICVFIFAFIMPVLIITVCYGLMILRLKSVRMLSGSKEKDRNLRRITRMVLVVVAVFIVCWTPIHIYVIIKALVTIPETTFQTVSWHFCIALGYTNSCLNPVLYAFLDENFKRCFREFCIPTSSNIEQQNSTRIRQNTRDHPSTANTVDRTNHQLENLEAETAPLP
Test [4] addresses T3, Alpha-2A adrenergic receptor (Homo sapiens, UniProt P08913).
T3 sequence (P08913 whole entry): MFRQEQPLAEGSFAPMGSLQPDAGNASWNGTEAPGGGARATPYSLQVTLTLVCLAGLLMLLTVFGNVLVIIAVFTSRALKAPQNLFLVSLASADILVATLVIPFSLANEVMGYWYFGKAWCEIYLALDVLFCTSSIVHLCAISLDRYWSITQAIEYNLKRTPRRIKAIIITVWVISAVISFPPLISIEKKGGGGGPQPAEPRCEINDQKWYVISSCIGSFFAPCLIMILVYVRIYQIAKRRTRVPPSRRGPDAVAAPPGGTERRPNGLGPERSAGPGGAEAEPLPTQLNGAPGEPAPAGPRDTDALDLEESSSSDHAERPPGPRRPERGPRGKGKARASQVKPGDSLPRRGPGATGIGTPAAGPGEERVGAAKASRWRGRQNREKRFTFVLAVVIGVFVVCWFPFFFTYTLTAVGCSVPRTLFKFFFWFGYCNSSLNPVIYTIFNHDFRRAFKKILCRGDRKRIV
It counts as functional, cell-based.

For a further test, the target named is T4, B2 bradykinin receptor (Homo sapiens, UniProt P30411).
T4 sequence (P30411 whole entry): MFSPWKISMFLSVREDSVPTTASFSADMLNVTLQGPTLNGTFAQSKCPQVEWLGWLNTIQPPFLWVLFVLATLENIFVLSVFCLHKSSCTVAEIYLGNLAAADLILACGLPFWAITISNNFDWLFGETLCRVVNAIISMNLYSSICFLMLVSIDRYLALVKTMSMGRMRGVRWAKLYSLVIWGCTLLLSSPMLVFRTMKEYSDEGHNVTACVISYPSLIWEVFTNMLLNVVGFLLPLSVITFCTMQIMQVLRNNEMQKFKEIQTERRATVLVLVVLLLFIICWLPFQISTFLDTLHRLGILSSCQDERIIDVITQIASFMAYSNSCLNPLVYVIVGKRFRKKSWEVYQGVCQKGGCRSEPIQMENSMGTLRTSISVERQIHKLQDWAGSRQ

Test [5] concerns the target T1, 5-hydroxytryptamine receptor 2B. It counts as functional, cell-based. This is another data set of the same source.
Test [6] addresses Gamma-aminobutyric acid receptor subunit alpha-1 (Rattus norvegicus, UniProt P62813). It counts as functional.
For test [7], the target named is T5, Alpha-2C adrenergic receptor (Homo sapiens, UniProt P18825).
T5 sequence (P18825 whole entry): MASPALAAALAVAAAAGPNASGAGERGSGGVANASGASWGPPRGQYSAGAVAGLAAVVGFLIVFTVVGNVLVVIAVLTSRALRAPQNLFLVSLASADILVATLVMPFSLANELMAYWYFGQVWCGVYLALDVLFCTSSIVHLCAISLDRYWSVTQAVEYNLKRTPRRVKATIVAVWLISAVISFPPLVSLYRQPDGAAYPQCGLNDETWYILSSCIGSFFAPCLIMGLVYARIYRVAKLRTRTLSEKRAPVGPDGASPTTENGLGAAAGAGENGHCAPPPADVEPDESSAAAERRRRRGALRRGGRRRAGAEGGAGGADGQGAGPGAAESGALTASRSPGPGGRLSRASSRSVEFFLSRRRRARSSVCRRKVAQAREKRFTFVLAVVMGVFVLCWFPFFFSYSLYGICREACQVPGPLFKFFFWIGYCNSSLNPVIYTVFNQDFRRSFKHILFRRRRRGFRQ
It is filed as functional.

Test [8] addresses Sodium-dependent noradrenaline transporter (Homo sapiens, UniProt P23975).
The target in test [9] is Muscarinic acetylcholine receptor M3 (Homo sapiens, UniProt P20309).
Note: assay procedure not described here.

Vasopressin V2 receptor, sequence (P30518 whole entry): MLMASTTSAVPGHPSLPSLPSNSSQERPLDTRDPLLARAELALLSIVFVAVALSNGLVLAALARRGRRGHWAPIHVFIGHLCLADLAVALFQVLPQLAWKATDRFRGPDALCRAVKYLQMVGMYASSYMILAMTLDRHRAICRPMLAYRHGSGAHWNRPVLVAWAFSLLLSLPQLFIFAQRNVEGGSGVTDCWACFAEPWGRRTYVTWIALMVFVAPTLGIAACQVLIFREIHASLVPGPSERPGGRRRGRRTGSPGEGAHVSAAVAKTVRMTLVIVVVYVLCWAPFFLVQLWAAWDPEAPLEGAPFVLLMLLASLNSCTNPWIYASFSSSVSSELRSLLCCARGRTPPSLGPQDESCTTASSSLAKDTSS
Histamine H1 receptor, sequence (P35367 whole entry): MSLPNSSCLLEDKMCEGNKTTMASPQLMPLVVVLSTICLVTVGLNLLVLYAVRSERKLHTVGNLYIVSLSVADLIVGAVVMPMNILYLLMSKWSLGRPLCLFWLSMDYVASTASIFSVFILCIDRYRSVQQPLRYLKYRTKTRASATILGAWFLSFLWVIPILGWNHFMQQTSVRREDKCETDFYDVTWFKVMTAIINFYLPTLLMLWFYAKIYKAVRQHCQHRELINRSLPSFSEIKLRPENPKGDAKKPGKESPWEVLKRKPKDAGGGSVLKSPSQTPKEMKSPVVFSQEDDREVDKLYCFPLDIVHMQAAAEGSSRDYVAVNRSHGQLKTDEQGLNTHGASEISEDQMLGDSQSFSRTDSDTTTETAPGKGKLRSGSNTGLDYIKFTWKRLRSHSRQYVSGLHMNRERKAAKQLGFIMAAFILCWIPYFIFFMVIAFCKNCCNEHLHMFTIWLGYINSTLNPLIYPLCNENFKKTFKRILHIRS
Cannabinoid receptor 1, sequence (P21554 whole entry): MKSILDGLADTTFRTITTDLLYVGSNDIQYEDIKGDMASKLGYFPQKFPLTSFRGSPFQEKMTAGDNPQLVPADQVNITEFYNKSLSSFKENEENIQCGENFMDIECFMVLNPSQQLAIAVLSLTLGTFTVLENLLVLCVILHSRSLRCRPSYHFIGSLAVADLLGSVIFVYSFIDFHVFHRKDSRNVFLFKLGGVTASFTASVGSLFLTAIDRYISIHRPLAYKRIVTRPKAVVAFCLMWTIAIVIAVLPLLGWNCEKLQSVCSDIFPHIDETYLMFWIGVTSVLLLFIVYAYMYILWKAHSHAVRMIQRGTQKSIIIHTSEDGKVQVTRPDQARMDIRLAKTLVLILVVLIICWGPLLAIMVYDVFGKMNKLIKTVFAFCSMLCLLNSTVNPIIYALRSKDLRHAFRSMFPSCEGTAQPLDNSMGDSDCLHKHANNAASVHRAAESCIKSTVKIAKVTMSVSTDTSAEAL
Sodium-dependent noradrenaline transporter, sequence (P23975 whole entry): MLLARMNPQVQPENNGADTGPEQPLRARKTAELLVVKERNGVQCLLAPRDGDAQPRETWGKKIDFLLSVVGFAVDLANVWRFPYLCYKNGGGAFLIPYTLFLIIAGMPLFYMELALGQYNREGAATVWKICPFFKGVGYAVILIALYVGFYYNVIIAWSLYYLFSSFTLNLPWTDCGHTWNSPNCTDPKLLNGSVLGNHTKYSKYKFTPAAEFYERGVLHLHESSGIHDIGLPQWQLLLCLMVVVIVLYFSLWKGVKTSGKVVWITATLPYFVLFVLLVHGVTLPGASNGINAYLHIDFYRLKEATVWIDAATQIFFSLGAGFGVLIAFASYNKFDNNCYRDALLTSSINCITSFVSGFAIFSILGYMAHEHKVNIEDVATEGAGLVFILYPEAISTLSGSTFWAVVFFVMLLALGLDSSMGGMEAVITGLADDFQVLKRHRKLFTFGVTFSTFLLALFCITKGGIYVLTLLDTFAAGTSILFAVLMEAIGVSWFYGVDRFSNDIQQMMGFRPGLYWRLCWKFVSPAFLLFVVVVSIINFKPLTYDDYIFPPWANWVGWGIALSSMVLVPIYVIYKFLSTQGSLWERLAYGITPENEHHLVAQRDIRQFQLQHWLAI
Gamma-aminobutyric acid receptor subunit alpha-1, sequence (P62813 whole entry): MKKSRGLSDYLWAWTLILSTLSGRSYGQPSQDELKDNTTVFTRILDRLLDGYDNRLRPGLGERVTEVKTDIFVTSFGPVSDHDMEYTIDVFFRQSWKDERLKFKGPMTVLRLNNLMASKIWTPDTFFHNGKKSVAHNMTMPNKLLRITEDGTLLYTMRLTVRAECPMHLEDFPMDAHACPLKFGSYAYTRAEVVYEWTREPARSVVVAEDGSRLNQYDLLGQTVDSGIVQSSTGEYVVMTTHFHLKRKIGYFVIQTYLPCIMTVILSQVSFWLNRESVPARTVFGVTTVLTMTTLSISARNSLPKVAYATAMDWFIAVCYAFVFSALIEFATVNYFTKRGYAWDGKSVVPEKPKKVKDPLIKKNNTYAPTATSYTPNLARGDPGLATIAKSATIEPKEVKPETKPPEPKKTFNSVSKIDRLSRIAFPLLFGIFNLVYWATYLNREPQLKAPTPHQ
Histamine H3 receptor, sequence (Q9Y5N1 whole entry): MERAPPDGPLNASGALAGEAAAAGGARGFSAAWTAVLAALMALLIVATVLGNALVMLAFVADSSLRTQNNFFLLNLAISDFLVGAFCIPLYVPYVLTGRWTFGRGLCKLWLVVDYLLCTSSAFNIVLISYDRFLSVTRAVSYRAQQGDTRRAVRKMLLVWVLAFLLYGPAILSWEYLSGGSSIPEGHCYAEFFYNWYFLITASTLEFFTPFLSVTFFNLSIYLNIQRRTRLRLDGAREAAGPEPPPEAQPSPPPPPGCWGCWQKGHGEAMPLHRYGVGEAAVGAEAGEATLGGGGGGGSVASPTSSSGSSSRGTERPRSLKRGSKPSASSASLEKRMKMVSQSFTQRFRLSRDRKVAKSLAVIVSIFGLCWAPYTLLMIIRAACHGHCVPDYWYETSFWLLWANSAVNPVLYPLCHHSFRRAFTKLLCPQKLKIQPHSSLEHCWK
Growth hormone secretagogue receptor type 1, sequence (Q92847 whole entry): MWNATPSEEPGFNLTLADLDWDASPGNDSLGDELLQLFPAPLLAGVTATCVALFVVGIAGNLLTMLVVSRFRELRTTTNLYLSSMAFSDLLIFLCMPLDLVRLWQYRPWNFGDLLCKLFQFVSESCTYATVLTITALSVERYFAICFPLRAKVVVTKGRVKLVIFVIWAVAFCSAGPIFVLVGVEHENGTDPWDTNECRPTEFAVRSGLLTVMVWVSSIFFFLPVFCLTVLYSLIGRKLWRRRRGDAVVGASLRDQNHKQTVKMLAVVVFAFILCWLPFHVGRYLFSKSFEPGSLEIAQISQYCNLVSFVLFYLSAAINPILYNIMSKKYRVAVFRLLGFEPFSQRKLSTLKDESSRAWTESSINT
Adenosine receptor A2a, sequence (P29274 whole entry): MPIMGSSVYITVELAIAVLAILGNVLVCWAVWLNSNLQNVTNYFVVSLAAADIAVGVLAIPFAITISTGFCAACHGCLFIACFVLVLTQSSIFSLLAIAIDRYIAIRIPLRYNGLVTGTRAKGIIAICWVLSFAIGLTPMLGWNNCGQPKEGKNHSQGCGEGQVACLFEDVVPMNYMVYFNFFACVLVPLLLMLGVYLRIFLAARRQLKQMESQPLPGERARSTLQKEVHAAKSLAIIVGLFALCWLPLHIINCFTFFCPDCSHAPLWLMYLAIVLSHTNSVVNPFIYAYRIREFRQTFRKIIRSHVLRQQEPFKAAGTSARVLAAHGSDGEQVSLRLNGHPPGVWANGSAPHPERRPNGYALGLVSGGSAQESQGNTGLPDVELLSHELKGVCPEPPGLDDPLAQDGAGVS
T1 sequence (P41595 whole entry): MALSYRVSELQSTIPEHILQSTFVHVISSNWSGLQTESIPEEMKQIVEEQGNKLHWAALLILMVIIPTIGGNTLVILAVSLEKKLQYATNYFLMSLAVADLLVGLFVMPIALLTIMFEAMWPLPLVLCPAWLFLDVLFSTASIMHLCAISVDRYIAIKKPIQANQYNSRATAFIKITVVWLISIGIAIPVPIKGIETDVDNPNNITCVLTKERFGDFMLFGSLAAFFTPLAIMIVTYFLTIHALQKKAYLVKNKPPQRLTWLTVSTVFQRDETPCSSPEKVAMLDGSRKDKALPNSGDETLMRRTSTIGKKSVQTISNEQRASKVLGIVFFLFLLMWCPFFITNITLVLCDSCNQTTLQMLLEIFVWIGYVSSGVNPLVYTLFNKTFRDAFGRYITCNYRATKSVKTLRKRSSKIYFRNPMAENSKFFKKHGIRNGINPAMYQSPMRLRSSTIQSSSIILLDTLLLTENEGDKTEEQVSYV

On to `CCOC(=O)OC(C)OC1=C(C(=O)Nc2ccccn2)N(C)S(=O)(=O)c2ccccc21` (stereo not given) [AMPIROXICAM], for which the half-maximal activity concentration (AC50) (usually the concentration at which the activity in the assay is half-maximal) is above 30 µM in test [1]; above 30 µM in test [2]; 10 µM in test [3]; above 30 µM on Adenosine receptor A1; above 30 µM on Cannabinoid receptor 1; above 30 µM on Vasopressin V2 receptor. Further, the concentration at half-maximal activity (AC50) (on Mu-type opioid receptor; in test [4]; on Histamine H3 receptor; on B2 bradykinin receptor; in [5]; on Adenosine receptor A2a) was above 30 µM in each case. Besides, the AC50 in [6], in [7] and in test [8] was above 30 µM in each case.
In the case of `CO/N=C(\C(=O)N[C@@H]1C(=O)N2C(C(=O)O)=C(CSc3nnnn3C)CS[C@H]12)c1csc(N)n1` [CEFMENOXIME], the AC50 (at Histamine H1 receptor; in test [1]; in test [3]; on Adenosine receptor A1; on Cannabinoid receptor 1; on Vasopressin V2 receptor) was above 30 µM in each case. The half-maximal activity concentration (AC50) (on Mu-type opioid receptor; in test [4]; on Histamine H3 receptor; at Vasopressin V1a receptor; on B2 bradykinin receptor; in test [5]) was above 30 µM each time. Further, the AC50 (at Adenosine receptor A2a; in [7]; in [8]) was above 30 µM each time.
`Nc1nc(/C(=C/CC(=O)O)C(=O)N[C@@H]2C(=O)N3C(C(=O)O)=CCS[C@H]23)cs1` [CEFTIBUTEN]: the AC50 (at Histamine H1 receptor; in test [1]; in [2]; in test [3]; at Adenosine receptor A1; on Vasopressin V2 receptor) was above 30 µM each time. Besides, the AC50 (at Mu-type opioid receptor; in [4]; at Histamine H3 receptor; at Vasopressin V1a receptor; on B2 bradykinin receptor; in test [5]) was above 30 µM in each case. Besides, the AC50 (in test [9]; at Adenosine receptor A2a; in test [6]; in test [7]; in test [8]) was above 30 µM throughout.
For `Cn1c(=O)c2c(ncn2CC2OCCO2)n(C)c1=O` [DOXOFYLLINE], the AC50 was above 30 µM in [1]; above 30 µM in test [2]; above 30 µM in [3]; above 30 µM on Adenosine receptor A1; above 30 µM at Cannabinoid receptor 1; above 10 µM on Vasopressin V2 receptor. The concentration at half-maximal activity (AC50) (at Mu-type opioid receptor; in test [4]; on Histamine H3 receptor; at B2 bradykinin receptor; in test [5]; on Adenosine receptor A2a) was above 30 µM throughout. Besides, the AC50 in test [6], in test [7] and in test [8] was above 30 µM in each case.
As to `CC(C(=O)O)c1ccc(N2Cc3ccccc3C2=O)cc1` (stereo not given) [INDOPROFEN], the AC50 (on Histamine H1 receptor; in test [1]; in [2]; in test [3]; on Adenosine receptor A1; at Vasopressin V2 receptor) was above 30 µM in each case. Besides, the AC50 (at Mu-type opioid receptor; in [4]; on Histamine H3 receptor; on Vasopressin V1a receptor; at B2 bradykinin receptor; in [5]) was above 30 µM in each case. The AC50 (in test [9]; at Adenosine receptor A2a; in test [6]; in [7]; in test [8]) was above 30 µM each time.
Regarding `Nc1nc(N)nc(-c2cc(Cl)ccc2Cl)n1` [IRSOGLADINE], the AC50 was above 30 µM in [1]; 22 µM in [3]; above 30 µM on Adenosine receptor A1; above 30 µM at Cannabinoid receptor 1; above 30 µM at Vasopressin V2 receptor; above 30 µM on Mu-type opioid receptor. Further, the AC50 (in test [4]; on Histamine H3 receptor; on B2 bradykinin receptor; in test [5]; at Adenosine receptor A2a; in test [7]) was above 30 µM in each case. In test [8], this compound registered an AC50 above 30 µM.
Take `CC(C)=CCC/C(C)=C/C=C/C(C)=C/C=C/C(C)=C/C=C/C=C(C)/C=C/C=C(C)/C=C/C=C(\C)CCC=C(C)C` [LYCOPENE]: the AC50 (at Histamine H1 receptor; in [1]; in test [2]; in [3]; on Adenosine receptor A1; on Vasopressin V2 receptor) was above 30 µM each time. The AC50 (at Mu-type opioid receptor; in test [4]; on Histamine H3 receptor; at Vasopressin V1a receptor; at B2 bradykinin receptor; in test [5]) was above 30 µM in each case. For the same compound, the AC50 (in test [9]; on Adenosine receptor A2a; in [6]; in test [7]; in test [8]) was above 30 µM each time.
`Clc1ccc(CCCOCCCN2CCCCC2)cc1` [PITOLISANT]: the concentration at half-maximal activity (AC50) was 11 µM on Histamine H1 receptor; above 30 µM in test [1]; above 30 µM in test [2]; above 30 µM in test [3]; above 30 µM at Adenosine receptor A1; above 30 µM at Cannabinoid receptor 1. Further, the AC50 (on Vasopressin V2 receptor; at Mu-type opioid receptor; on Vasopressin V1a receptor; at B2 bradykinin receptor; in test [5]; in [9]) was above 30 µM in each case. Further, the AC50 was above 30 µM on Adenosine receptor A2a, above 30 µM in test [6], 6 µM in [7] and 13 µM in test [8].
Turning to `CC(=O)O[C@H]1C[C@@H]2CC[C@@H]3[C@H](CC[C@@]4(C)[C@H]3C[C@H]([N+]3(C)CCCCC3)[C@@H]4OC(C)=O)[C@@]2(C)C[C@@H]1N1CCCCC1` [VECURONIUM], the AC50 (in [1]; in test [2]; in test [3]; at Adenosine receptor A1; at Cannabinoid receptor 1; at Vasopressin V2 receptor) was above 30 µM each time. The AC50 at Mu-type opioid receptor was above 30 µM; in test [4] it was above 30 µM; on Histamine H3 receptor, 18 µM; on B2 bradykinin receptor, above 30 µM; in test [5], above 30 µM; on Adenosine receptor A2a, above 30 µM. Further, the AC50 in test [6], in [7] and in test [8] was above 30 µM throughout.
